The values below come from US7595345B2, “Vitamin D receptor modulators” (Eli Lilly and Company, priority 2003, dated 2009).

One may read the EC50 as the midpoint of the concentration-response curve. In general, IC50 refers to the point on the concentration scale where inhibition reaches its midpoint.

The test system of series [1] is rat osteocalcin promoter. The series can be described thus: OCN (osteocalcin) promoter assay. It counts as cell-based. To be noted: RG-15 (ROS 17/2.8) cells, 48 hr treatment, luciferase. As for the experimental part:
3. The OCN (Osteocalcin) Promoter Assay
The OCN Promoter Assay is an indicator and marker for osteoporosis. Desired assay results are EC50 less than or equal to […]. Preferred assay results are less than […].
(3) Materials and Method for the OCN Promoter Assay:
The activation of osteocalcin by VDR ligands was evaluated in a rat osteoblast-like cell line RG-15 (ROS 17/2.8) stably expressing rat osteocalcin promoter fused with luciferase reporter gene. The stable cell lines were established as reported before (Activation of Osteocalcin Transcription involves interaction of protein kinase A- and Protein kinase C-dependent pathways. Boguslawski, G., Hale, L. V., Yu, X.-P., Miles, R. R., Onyia, J. E., Santerre R. F., Chandrasekhar, S. J. Biol. Chem. 275, 999-1006, 2000). Confluent RG-15 cells maintained in DMEM/F-12 medium (3:1) containing 5% FBS, 300 µg/ml G418 and at 37° C. under 5% CO2/95% air atmosphere were trypsinized (0.25% trypsin) and plated into white opaque 96-well cell culture plates (25000 cells/well). After 24 hr, cells (in DMEM/F-12 medium+2% FBS) were treated with various concentrations of compounds, dissolved in DMSO. The final DMSO concentration remained at 0.01% (v/v). After 48 hr treatment, the medium was removed, cells were lysed with 50 µl of lysis buffer (From Luciferase reporter assay system, Roche Diagnostics, Indianapolis, Ind.) and assayed for luciferase activity using the Luciferase Reporter Gene Assay kit from Boehringer Mannheim as per manufacturer's specifications.

Series [2] is described as follows: Mouse hypercalcemia assay. To be noted: female DBF mice, oral gavage for 6 days, serum ionized calcium 6 hours after last dosing. It counts as in vivo. The text has this:
4. The Mouse Hypercalcemia Assay
(4) Materials and Method for the Mouse Hypercalcemia Assay: […]

For series [3], the system named is KERtr cells. The series can be described thus: Keratinocyte proliferation assay. It counts as cell-based. To be noted: Homo sapiens, 72 hr, BrdU incorporation, read-out: Kera. Prolif. IC50. As for the experimental part:
5. The Keratinocyte Proliferation Assay
This Assay is indicative for the treatment of psoriasis.
(5) The Keratinocyte Proliferation Assay:
KERtr cells (Human skin keratinocyte transformed with a retrovirus vector, obtained from ATCC) were plated in 96-well flat-bottomed plates (3000 cells/well) in 100 µl keratinocyte serum free medium supplemented with bovine pituitary extract in the absence of EGF (Life Technologies, Rockville, Md.) and incubated at 37° C. for two days. The cells were treated with various concentrations of VDR ligands (ten-fold serial dilution from 10,000 nM to 0.1 nM in triplicate), dissolved in 100 µl keratinocyte serum free medium supplemented with bovine pituitary extract in the absence of EGF and incubated at 37° C. for 72 hr. BrdU (5-bromo-2′-deoxyuridine) incorporation was analyzed as a measure of DNA replication (Cell proliferation ELISA kit, Roche Diagnostics, Indianapolis, Ind.) and absorbance was measured at 405 nm. Potency values (IC50) values were determined as the concentration (nM) of compound that elicited a half-maximal response.

The test system of series [4] is IL-10 production in PBMCs. The series can be described thus: Human IL-10 induction assay. Particulars: PBMC; TPA/PHA treated human PBMCs, IL-10 in supernatant by immunoassay. In kind it is cell-based. The text has this: 6. The IL-10 Induction Assay
This is an in vitro efficacy assay for psoriasis, abscess and adhesion. Psoriasis involves both keratinocytes and immune cells. IL-10 is a unique cytokine because it is anti-inflammatory and immunosuppressive. This assay tells us whether a VDRM is able to function as an agonist in PBMCs (primary blood mononuclear cells) or not. A lower EC50 value is desirable in this assay since a compound with a lower EC50 value will be a better agonist in PBMCs. […] 7. Other Compound Assay Standards An alternative measure of the efficacy of compounds of the invention for treatment of osteoporosis is a numerical ratio calculated as follows: • Dose Threshold needed to induce hypercalcemia • divided by • Dose Threshold needed for bone efficacy An alternative measure of the efficacy of compounds of the invention for treatment of psoriasis is a numerical ratio calculated as follows: • Dose Threshold needed to induce hypercalcemia • divided by • Dose Threshold needed to induce keratinocyte proliferation For the above ratios, Dose Thresholds are determined from dose response curve data. 8. The CaT1 (Calcium Transport Protein 1) Assay The CaT1 Assay is an indicator for the undesirable condition of hypercalcemia. The higher the EC50 values for a compound the less calcemic it will be in vivo. […] Preferred assay results are greater than 1000 nM. Details of the Assay Methods: (1) Materials and Method for RXR-VDR Heterodimerization Assay: Transfection Method:
(6) Materials and Method for Human IL-10 Induction Assay:
Isolation of peripheral blood mononuclear cells (PBMCs): • A. Collect 50 ml of human blood and dilute with media, RPMI-1640. • B. Prepare sterile tubes with ficol. • C. Add diluted blood to tubes. • D. Centrifuge. • E. Discard the top layer and collect the cells from middle layer. • F. Divide all cells into four tubes and add media. • G. Centrifuge. • H. Aspirate off media and resuspend. • I. Collect all cells • J. Centrifuge. at 1200 rpm for 10 minutes. • K. Resuspend in RPMI-1640 with 2% FBS and count cells
Stimulation of PBMC: • L. Prepare TPA in DMSO. • M. Dissolve PHA in water. • N. Plate TPA/PHA treated PBMCs in well plates. • O. Incubate.
Treatment: • P. Prepare all compound dilutions in plain RPMI-1640 media. • Q. Add diluted compound. • R. Incubate.
Sample Collection and Assay: • S. Remove all the cells by centrifugation and assay the supernatant for IL-10 by immunoassay. • 1) T. Perform IL-10 assay using anti-human IL-10 antibody coated beads, as described by the manufacturer (Linco Research Inc., St. Charles, Mo.).

For series [5], the target named is T1, VDR (pGal4-VDR-LBD) (Homo sapiens, UniProt P11473).
T1 construct: the receptor expression vector pGal4-VDR-LBD (10 ng); expressed in transfected cells; host or cells: Caco-2 cells
T1 sequence (P11473 127-423 limits assumed): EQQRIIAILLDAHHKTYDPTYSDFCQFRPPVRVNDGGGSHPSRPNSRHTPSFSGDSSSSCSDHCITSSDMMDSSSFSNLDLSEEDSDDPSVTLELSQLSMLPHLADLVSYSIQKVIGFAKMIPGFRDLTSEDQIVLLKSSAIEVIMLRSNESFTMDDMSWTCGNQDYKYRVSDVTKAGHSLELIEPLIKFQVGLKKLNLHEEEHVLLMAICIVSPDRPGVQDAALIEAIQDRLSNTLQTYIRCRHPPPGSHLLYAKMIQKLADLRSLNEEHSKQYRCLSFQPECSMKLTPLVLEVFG
The series can be described thus: VDR CTF (Caco-2 cell co-transfection assay). To be noted: Caco-2 cells, Gal4-responsive reporter pFRLuc; surrogate for calcemic activity. In kind it is cell-based. As for the experimental part:
2. The Caco-2 Cell Co-Transfection Assay:
The Caco-2 cell assay is an indicator for the undesirable condition of hypercalcemia. This co-transfection assay is a surrogate assay for in vivo calcemic activity of VDR ligands. […] Preferred assay results are greater than 1000 nM.
(2) Materials and Method for the Caco-2 Cell Assay:
Caco-2 cells, grown in phenol red free, DMEM (Invitrogen, Carlsbad, Calif.) containing 10% charcoal-stripped FCS (Hyclone, Logan, Utah), were transfected with Fugene 6 reagent (Roche Diagnostics, Indianapolis, Ind.). Cells (5000/well) were plated 18 h before transfection in a 96 well plate. The Cells were transfected with Gal4-responsive reporter pFRLuc (150 ng, Stratagene, La Jolla Calif.) and the receptor expression vector pGal4-VDR-LBD (10 ng), along with Fugene 6 reagent (0.2 μl/well). The DNA-Fugene complex was formed by incubating the mixture for 30 min at room temperature. The cells were transfected in triplicate for 5 h, and treated with various concentrations of VDR ligands (form 0.01 nM to 10,000 nM concentration range) 18 h post-transfection. The luciferase activity was quantified using Steady-Glo reagent kit (Promega, Madison, Wis.) as per manufacturer's specifications.

`CCC(CC)(c1ccc(OCC(O)CO)c(C)c1)c1ccc(OCC(O)C(C)(C)C)c(C)c1` (stereo not drawn) [BB, 3-(4-{1-Ethyl-1-[4-(2-hydroxy-3,3-dimethyl-butoxy)-3-methyl-phenyl]-propyl}-2-methyl-phenoxy)-propane-1,2-diol, reference compound]: the EC50 in series [1] (Rattus norvegicus, 48 h) is 8.24 nM. Also, the “Mouse Hypercal” value in series [2] is 20 µg/kg/day. Further, the IC50 in series [3] amounted to 10 nM; in series [4], 28 nM.

`CCC(O)(C#Cc1ccc(C(CC)(CC)c2ccc(C(=O)NC(C)(C)C(=O)O)c(C)c2)cc1C)CC` [Ex. 2, 2-(4-{1-Ethyl-1-[4-(3-ethyl-3-hydroxy-pent-1-ynyl)-3-methyl-phenyl]-propyl}-2-methyl-benzoylamino)-2-methyl-propionic acid]: the EC50 was 397 nM in series [5]; 1.7 nM in series [1]; 1.2 nM in series [1] (Rattus norvegicus, 48 h). In addition, the “Mouse Hypercal” value in series [2] was 300 µg/kg/day. Moreover, the figures for the IC50 in series [3] and in series [4] were 21 nM and 24 nM, respectively.

In the case of `CCC(CC)(c1ccc(OCC(=O)C(C)(C)C)c(C)c1)c1ccc(OCC(=O)C(C)(C)C)c(C)c1` [DD, reference compound], the EC50 in series [1] (Rattus norvegicus, 48 h) was 31.1 nM. Also, the “Mouse Hypercal” value in series [2] is 1000 µg/kg/day. In addition, the IC50 in series [3] turned out to be 1060 nM.

Regarding `C=C1/C(=C\C=C2/CCC[C@]3(C)[C@@H]([C@H](C)/C=C/[C@@H](O)C4CC4)CC[C@@H]23)C[C@@H](O)C[C@@H]1O` [FF, calcipotriol, reference compound], the IC50 in series [3] worked out at 103 nM; in series [4], 0.5 nM.

As to `CCC(CC)(c1ccc(OCC(=O)C(C)(C)C)c(C)c1)c1ccc(OC[C@H](O)C(C)(C)C)c(C)c1` [EE, reference compound], in series [1] (Rattus norvegicus, 48 h), the EC50 amounted to 341 nM. The “Mouse Hypercal” value in series [2] was 1000 µg/kg/day.

Consider `C=C1/C(=C\C=C2/CCC[C@]3(C)[C@@H]([C@H](C)CCCC(C)(C)O)CC[C@@H]23)C[C@@H](O)C[C@@H]1O` [AA, 1α,25-dihydroxyvitamin D3, reference compound], for which the “Mouse Hypercal” value in series [2] was 0.06 µg/kg/day.
